Results published in patent US11819476B2, “Rapamycin analogs and uses thereof” (Janssen Pharmaceutica NV, priority 2019, dated 2023).

The compounds below were run on pS6K1 in MCF7 (assay: AlphaLISA Ultra pS6K1 Assay). Settings: Homo sapiens, 1.5 h; MCF7 cells, 90 min incubation.
Format: cell-based
Method: Example 74: AlphaLISA Ultra pS6K1 Assay
Assay Protocol: • 1. Seed MCF-7 cells in Corning 3701 plate and incubate for 20˜24 hour. 12,000˜16,000 cells will be seeded in 36 μL medium per well. • 2. Change the culture medium with fresh medium and incubate for another 2 hours. • 3. Add 12 μL (4×) compounds into the cell plate by HAMILTON. Final DMSO concentration is 0.5%. Incubate for 90 minutes. • 4. Aspirate 38 μL by HAMILTON, 10 μL rest per well. • 5. Add 10 μL 2× lysis buffer using HAMILTON; total volume in wells is 20 μL. Allow cells to shake for 30 min. Cover plate by plastic foil and store plate at −80° C. up to analysis. • 6. Thaw cell lysate at RT and transfer 10 μL lysate to assay plate (Optiplate-384). • 7. Add 5 μL acceptor beads into assay plate and incubation for 2 hours • 8. Add 5 μL donor beads and incubation for 2 hours • 9. Count the plate by EnSpire Multimode Plate Reader
For `CO[C@@H]1C[C@H](C[C@@H](C)[C@@H]2CC(=O)[C@H](C)/C=C(\C)[C@@H](O)[C@@H](OC)C(=O)[C@H](C)C[C@H](C)/C=C/C=C/C=C(\C)[C@H](OCCOc3ccccc3)C[C@@H]3CC[C@@H](C)[C@@](O)(O3)C(=O)C(=O)N3CCCC[C@H]3C(=O)O2)CC[C@H]1OCCO` [Example I-6, (26E,28E,30E,31E,38R,39S,40R,41R,43S,45S,47R,48S,49R,50R,59R)-49,59-dihydroxy-48-[(1R)-2-[(1S,3R,4R)-4-(2-hydroxyethoxy)-3-methoxy-cyclohexyl]-1-methyl-ethyl]-50-methoxy-38,39,40,41,51,52-hexamethyl-47-(2-phenoxyethoxy)-69,70-dioxa-60-azatricyclohexatriaconta-26,28,30(51),31(52)-tetraene-53,54,55,56,57-pentone], the IC50 was 1 to 10 nM.
`CO[C@@H]1C[C@H](C[C@@H](C)[C@@H]2CC(=O)[C@H](C)/C=C(\C)[C@@H](O)[C@@H](OC)C(=O)[C@H](C)C[C@H](C)/C=C/C=C/C=C(\C)[C@H](OCCOC3COC3)C[C@@H]3CC[C@@H](C)[C@@](O)(O3)C(=O)C(=O)N3CCCC[C@H]3C(=O)O2)CC[C@H]1OCCO` [Example I-8, (23E,25E,27E,28E,34R,35S,36R,37R,39S,41S,43R,44S,46R,47R,56R)-46,56-dihydroxy-44-[(1R)-2-[(1S,3R,4R)-4-(2-hydroxyethoxy)-3-methoxy-cyclohexyl]-1-methyl-ethyl]-47-methoxy-34,35,36,37,48,49-hexamethyl-43-[2-(oxetan-3-yloxy)ethoxy]-67,68-dioxa-57-azatricyclohexatriaconta-23,25,27(48),28(49)-tetraene-50,51,52,53,54-pentone] showed an IC50 of 1 to 10 nM.
Compound `CO[C@@H]1C[C@H](C[C@@H](C)[C@@H]2CC(=O)[C@H](C)/C=C(\C)[C@@H](O)[C@@H](OC)C(=O)[C@H](C)C[C@H](C)/C=C/C=C/C=C(\C)C(OCC3CCCCC3)C[C@@H]3CC[C@@H](C)[C@@](O)(O3)C(=O)C(=O)N3CCCC[C@H]3C(=O)O2)CC[C@H]1OCCO` (stereo partly drawn) [Example I-10, (26E,28E,30E,31E,36R,37S,38R,39R,42S,44S,47S,48R,49R,58R)-46-(cyclohexylmethoxy)-48,58-dihydroxy-47-[(1R)-2-[(1S,3R,4R)-4-(2-hydroxyethoxy)-3-methoxy-cyclohexyl]-1-methyl-ethyl]-49-methoxy-36,37,38,39,50,51-hexamethyl-68,69-dioxa-59-azatricyclohexatriaconta-26,28,30(50),31(51)-tetraene-52,53,54,55,56-pentone] has an IC50 of 1 to 10 nM.
`CO[C@@H]1C[C@H](C[C@@H](C)[C@@H]2CC(=O)[C@H](C)/C=C(\C)[C@@H](O)[C@@H](OC)C(=O)[C@H](C)C[C@H](C)/C=C/C=C/C=C(\C)C(OCC3CCCCO3)C[C@@H]3CC[C@@H](C)[C@@](O)(O3)C(=O)C(=O)N3CCCC[C@H]3C(=O)O2)CC[C@H]1OCCO` (stereo partly drawn) [Example I-11, (25E,27E,29E,30E,35R,36S,37R,38R,40S,43S,46S,47R,48R,57R)-47,57-dihydroxy-46-[(1R)-2-[(1S,3R,4R)-4-(2-hydroxyethoxy)-3-methoxy-cyclohexyl]-1-methyl-ethyl]-48-methoxy-35,36,37,38,49,50-hexamethyl-45-(tetrahydropyran-2-ylmethoxy)-68,69-dioxa-58-azatricyclohexatriaconta-25,27,29(49),30(50)-tetraene-51,52,53,54,55-pentone] was tested, and the IC50 was under 0.1 nM.
Work on `CO[C@@H]1C[C@H](C[C@@H](C)[C@@H]2CC(=O)[C@H](C)/C=C(\C)[C@@H](O)[C@@H](OC)C(=O)[C@H](C)C[C@H](C)/C=C/C=C/C=C(\C)C(OCCOc3ccccc3)C[C@@H]3CC[C@@H](C)[C@@](O)(O3)C(=O)C(=O)N3CCCC[C@H]3C(=O)O2)CC[C@H]1OCCO` (stereo partly drawn) [Example I-12, (26E,28E,30E,31E,38R,39S,40R,41R,43S,45S,48S,49R,50R,59R)-49,59-dihydroxy-48-[(1R)-2-[(1S,3R,4R)-4-(2-hydroxyethoxy)-3-methoxy-cyclohexyl]-1-methyl-ethyl]-50-methoxy-38,39,40,41,51,52-hexamethyl-47-(2-phenoxyethoxy)-69,70-dioxa-60-azatricyclohexatriaconta-26,28,30(51),31(52)-tetraene-53,54,55,56,57-pentone] yielded an IC50 of 0.1 to 1 nM.
`CO[C@@H]1C[C@H](C[C@@H](C)[C@@H]2CC(=O)[C@H](C)/C=C(\C)[C@@H](O)[C@@H](OC)C(=O)[C@H](C)C[C@H](C)/C=C/C=C/C=C(\C)C(OCCOC3CCOCC3)C[C@@H]3CC[C@@H](C)[C@@](O)(O3)C(=O)C(=O)N3CCCC[C@H]3C(=O)O2)CC[C@H]1OCCO` (stereo partly drawn) [Example I-13, (25E,27E,29E,30E,36R,37S,38R,39R,42S,44S,47S,48R,49R,58R)-48,58-dihydroxy-47-[(1R)-2-[(1S,3R,4R)-4-(2-hydroxyethoxy)-3-methoxy-cyclohexyl]-1-methyl-ethyl]-49-methoxy-36,37,38,39,50,51-hexamethyl-46-(2-tetrahydropyran-4-yloxyethoxy)-69,70-dioxa-59-azatricyclohexatriaconta-25,27,29(50),30(51)-tetraene-52,53,54,55,56-pentone] gave an IC50 of 1 to 10 nM.
In the case of `CO[C@@H]1C[C@H](C[C@@H](C)[C@@H]2CC(=O)[C@H](C)/C=C(\C)[C@@H](O)[C@@H](OC)C(=O)[C@H](C)C[C@H](C)/C=C/C=C/C=C(\C)C(OCCOC3COC3)C[C@@H]3CC[C@@H](C)[C@@](O)(O3)C(=O)C(=O)N3CCCC[C@H]3C(=O)O2)CC[C@H]1OCCO` (stereo partly drawn) [Example I-14, (23E,25E,27E,28E,34R,35S,36R,37R,39S,41S,44S,46R,47R,56R)-46,56-dihydroxy-44-[(1R)-2-[(1S,3R,4R)-4-(2-hydroxyethoxy)-3-methoxy-cyclohexyl]-1-methyl-ethyl]-47-methoxy-34,35,36,37,48,49-hexamethyl-43-[2-(oxetan-3-yloxy)ethoxy]-67,68-dioxa-57-azatricyclohexatriaconta-23,25,27(48),28(49)-tetraene-50,51,52,53,54-pentone], the IC50 is reported as 0.1 to 1 nM.
`COCCOc1ccc(C2C[C@@H]3CC[C@@H](C)[C@@](O)(O3)C(=O)C(=O)N3CCCC[C@H]3C(=O)O[C@H]([C@H](C)C[C@@H]3CC[C@@H](O)[C@H](OC)C3)CC(=O)[C@H](C)/C=C(\C)[C@H](O)[C@@H](OC)C(=O)[C@H](C)C[C@H](C)/C=C/C=C/C=C/2C)c(OC)c1` (stereo partly drawn) [Example I-24, (26E,28E,30E,31E,38R,39S,40R,41R,43S,45S,48S,49S,50R,59R)-49,59-dihydroxy-48-[(1R)-2-[(1S,3R,4R)-4-hydroxy-3-methoxy-cyclohexyl]-1-methyl-ethyl]-50-methoxy-46-[2-methoxy-4-(2-methoxyethoxy)phenyl]-38,39,40,41,51,52-hexamethyl-69,70-dioxa-60-azatricyclohexatriaconta-26,28,30(51),31(52)-tetraene-53,54,55,56,57-pentone] showed an IC50 of 1 to 10 nM.
